# ChEMBL document CHEMBL1145498, “A systematic interaction map of validated kinase inhibitors with Ser/Thr kinases” (Proc Natl Acad Sci U S A, 2007)
# Molecular target: T1, Serine/threonine-protein kinase PLK4 (Homo sapiens) (UniProt O00444)
# T1 sequence (whole entry): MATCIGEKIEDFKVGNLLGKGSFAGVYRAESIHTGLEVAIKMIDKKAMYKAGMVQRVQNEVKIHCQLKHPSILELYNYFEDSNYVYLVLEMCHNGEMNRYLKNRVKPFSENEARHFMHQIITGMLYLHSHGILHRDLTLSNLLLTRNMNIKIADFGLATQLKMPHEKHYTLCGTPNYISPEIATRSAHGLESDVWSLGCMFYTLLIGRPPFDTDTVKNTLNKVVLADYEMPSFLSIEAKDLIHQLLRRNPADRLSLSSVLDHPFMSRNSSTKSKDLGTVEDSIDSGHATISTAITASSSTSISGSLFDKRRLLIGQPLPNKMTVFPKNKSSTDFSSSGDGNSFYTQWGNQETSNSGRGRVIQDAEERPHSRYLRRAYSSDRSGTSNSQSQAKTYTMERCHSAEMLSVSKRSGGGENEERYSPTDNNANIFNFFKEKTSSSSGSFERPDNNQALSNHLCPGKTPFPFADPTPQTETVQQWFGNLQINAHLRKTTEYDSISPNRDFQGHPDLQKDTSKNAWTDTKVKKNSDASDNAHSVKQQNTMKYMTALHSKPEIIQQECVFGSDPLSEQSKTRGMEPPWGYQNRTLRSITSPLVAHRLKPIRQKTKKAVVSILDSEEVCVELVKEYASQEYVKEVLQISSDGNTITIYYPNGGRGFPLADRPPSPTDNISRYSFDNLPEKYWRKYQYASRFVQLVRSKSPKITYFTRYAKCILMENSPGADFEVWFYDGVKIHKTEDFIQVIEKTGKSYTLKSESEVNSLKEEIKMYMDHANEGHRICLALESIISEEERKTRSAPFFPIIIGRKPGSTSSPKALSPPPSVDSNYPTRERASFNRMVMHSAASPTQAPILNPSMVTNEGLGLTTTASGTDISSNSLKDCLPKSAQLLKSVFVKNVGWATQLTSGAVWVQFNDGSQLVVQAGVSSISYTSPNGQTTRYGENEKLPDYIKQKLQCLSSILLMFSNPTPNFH
row,ΔTm [°C],SMILES
1,2,O=C(Nc1cccc(Nc2cc(Nc3cccc(C(F)(F)F)c3)ncn2)c1)C1CC1
2,1.2,c1ccc(-c2n[nH]c3c2oc2ccccc23)cc1
3,2.9,CC(C)c1nn(-c2c(Cl)cccc2Cl)c2nc(Cc3ccc(OCCO)cc3)[nH]c(=O)c12

row,SMILES,ΔTm [°C]
1,Cc1ccc(NC2=CC(=O)c3sc(C)nc3C2=O)cc1,-0.3

# Molecular target: Mitogen-activated protein kinase 11 (Homo sapiens, UniProt Q15759)
# Sequence (Q15759 whole entry): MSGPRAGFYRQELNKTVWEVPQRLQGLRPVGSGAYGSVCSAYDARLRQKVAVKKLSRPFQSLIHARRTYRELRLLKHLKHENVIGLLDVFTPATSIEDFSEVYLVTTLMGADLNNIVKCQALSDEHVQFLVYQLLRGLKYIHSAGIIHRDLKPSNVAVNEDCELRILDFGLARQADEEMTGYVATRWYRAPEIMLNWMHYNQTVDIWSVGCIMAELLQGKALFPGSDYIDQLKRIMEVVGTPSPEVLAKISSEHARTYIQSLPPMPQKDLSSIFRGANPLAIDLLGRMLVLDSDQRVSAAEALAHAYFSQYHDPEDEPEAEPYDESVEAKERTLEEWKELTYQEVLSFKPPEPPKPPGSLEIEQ
row,ΔTm [°C],SMILES
1,2.8,O=C(Nc1cccc(Nc2cc(Nc3cccc(C(F)(F)F)c3)ncn2)c1)C1CC1
2,1.2,c1ccc(-c2n[nH]c3c2oc2ccccc23)cc1
3,0.7,CC(C)c1nn(-c2c(Cl)cccc2Cl)c2nc(Cc3ccc(OCCO)cc3)[nH]c(=O)c12

row,SMILES,ΔTm [°C]
1,Cc1ccc(NC2=CC(=O)c3sc(C)nc3C2=O)cc1,-0.6

# Molecular target: Serine/threonine-protein kinase PAK 5 (Homo sapiens) (UniProt Q9P286)
row,ΔTm [°C],SMILES
1,1,O=C(Nc1cccc(Nc2cc(Nc3cccc(C(F)(F)F)c3)ncn2)c1)C1CC1
2,0.3,c1ccc(-c2n[nH]c3c2oc2ccccc23)cc1
3,6.2,CC(C)c1nn(-c2c(Cl)cccc2Cl)c2nc(Cc3ccc(OCCO)cc3)[nH]c(=O)c12

row,SMILES,ΔTm [°C]
1,Cc1ccc(NC2=CC(=O)c3sc(C)nc3C2=O)cc1,0.4

# Molecular target: T2, Serine/threonine-protein kinase Nek2 (Homo sapiens) (UniProt P51955)
# T2 sequence (whole entry): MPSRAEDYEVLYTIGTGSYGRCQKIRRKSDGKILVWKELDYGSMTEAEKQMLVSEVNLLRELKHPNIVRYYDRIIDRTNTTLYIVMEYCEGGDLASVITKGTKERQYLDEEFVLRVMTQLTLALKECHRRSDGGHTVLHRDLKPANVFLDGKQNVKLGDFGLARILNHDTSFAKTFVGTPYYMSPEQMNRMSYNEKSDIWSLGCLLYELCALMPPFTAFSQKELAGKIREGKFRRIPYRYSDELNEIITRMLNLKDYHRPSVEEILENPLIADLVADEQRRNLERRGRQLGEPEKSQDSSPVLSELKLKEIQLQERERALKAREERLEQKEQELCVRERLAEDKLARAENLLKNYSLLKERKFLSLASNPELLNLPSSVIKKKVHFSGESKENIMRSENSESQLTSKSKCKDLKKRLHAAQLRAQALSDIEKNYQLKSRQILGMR
row,ΔTm [°C],SMILES
1,2,O=C(Nc1cccc(Nc2cc(Nc3cccc(C(F)(F)F)c3)ncn2)c1)C1CC1
2,0.1,c1ccc(-c2n[nH]c3c2oc2ccccc23)cc1
3,1.5,CC(C)c1nn(-c2c(Cl)cccc2Cl)c2nc(Cc3ccc(OCCO)cc3)[nH]c(=O)c12

row,SMILES,ΔTm [°C]
1,Cc1ccc(NC2=CC(=O)c3sc(C)nc3C2=O)cc1,-1.2

# Molecular target: STE20-like serine/threonine-protein kinase (Homo sapiens) (UniProt Q9H2G2)
# Sequence (Q9H2G2 whole entry, looked up): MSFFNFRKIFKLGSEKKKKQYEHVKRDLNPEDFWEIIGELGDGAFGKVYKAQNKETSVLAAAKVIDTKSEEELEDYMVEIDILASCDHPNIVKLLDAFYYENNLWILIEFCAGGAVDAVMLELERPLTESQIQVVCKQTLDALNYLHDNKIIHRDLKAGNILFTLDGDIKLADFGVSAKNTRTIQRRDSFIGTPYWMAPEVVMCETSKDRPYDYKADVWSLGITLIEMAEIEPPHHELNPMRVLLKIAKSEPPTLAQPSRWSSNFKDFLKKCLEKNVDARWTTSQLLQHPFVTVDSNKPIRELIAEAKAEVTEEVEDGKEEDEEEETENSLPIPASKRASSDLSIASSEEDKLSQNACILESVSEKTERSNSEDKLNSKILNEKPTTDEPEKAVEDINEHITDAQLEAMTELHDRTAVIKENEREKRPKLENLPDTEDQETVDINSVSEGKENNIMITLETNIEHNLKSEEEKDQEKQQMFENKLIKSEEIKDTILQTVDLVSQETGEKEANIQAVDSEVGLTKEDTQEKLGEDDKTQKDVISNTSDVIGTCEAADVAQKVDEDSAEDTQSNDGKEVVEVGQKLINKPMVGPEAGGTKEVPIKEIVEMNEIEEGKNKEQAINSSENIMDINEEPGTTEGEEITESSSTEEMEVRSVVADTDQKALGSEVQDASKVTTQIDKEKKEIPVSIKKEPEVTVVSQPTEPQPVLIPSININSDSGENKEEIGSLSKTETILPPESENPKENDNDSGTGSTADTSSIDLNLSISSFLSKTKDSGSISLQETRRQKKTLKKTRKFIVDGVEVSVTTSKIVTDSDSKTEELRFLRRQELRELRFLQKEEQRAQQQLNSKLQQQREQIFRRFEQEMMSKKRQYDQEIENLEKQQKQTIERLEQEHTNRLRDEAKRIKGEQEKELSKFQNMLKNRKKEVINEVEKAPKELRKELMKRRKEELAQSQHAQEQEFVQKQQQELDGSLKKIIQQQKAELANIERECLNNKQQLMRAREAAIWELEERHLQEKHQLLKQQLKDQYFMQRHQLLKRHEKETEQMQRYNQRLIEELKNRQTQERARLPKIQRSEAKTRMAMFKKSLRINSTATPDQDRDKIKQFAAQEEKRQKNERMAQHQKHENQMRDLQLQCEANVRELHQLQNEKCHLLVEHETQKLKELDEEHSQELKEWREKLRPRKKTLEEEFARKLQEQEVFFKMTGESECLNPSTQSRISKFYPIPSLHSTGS
row,ΔTm [°C],SMILES
1,3.2,O=C(Nc1cccc(Nc2cc(Nc3cccc(C(F)(F)F)c3)ncn2)c1)C1CC1
2,1.6,c1ccc(-c2n[nH]c3c2oc2ccccc23)cc1
3,-0.5,CC(C)c1nn(-c2c(Cl)cccc2Cl)c2nc(Cc3ccc(OCCO)cc3)[nH]c(=O)c12

row,SMILES,ΔTm [°C]
1,Cc1ccc(NC2=CC(=O)c3sc(C)nc3C2=O)cc1,-0.6

# Molecular target: Ribosomal protein S6 kinase alpha-3 (Homo sapiens) (UniProt P51812)
# Sequence (P51812 whole entry): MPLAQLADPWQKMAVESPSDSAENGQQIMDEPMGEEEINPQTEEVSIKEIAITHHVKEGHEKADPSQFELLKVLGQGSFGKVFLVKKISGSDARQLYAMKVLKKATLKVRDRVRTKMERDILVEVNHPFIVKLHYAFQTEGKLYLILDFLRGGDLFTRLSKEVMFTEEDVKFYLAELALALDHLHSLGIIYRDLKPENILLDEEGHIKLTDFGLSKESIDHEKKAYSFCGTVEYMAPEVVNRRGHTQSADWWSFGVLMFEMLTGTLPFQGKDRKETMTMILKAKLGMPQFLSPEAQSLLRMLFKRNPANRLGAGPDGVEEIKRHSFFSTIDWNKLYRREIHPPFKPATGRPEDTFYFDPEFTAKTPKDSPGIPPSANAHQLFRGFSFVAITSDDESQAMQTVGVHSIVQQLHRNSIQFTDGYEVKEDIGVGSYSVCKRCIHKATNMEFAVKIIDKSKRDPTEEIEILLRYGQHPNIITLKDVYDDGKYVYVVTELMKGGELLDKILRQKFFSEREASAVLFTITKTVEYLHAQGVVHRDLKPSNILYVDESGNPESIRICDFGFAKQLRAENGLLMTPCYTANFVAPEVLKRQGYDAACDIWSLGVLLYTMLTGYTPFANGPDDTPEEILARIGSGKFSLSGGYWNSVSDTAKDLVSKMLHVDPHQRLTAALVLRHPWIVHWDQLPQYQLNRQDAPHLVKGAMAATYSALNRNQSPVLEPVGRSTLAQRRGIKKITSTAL
row,ΔTm [°C],SMILES
1,2.6,O=C(Nc1cccc(Nc2cc(Nc3cccc(C(F)(F)F)c3)ncn2)c1)C1CC1
2,1.1,c1ccc(-c2n[nH]c3c2oc2ccccc23)cc1
3,3.5,CC(C)c1nn(-c2c(Cl)cccc2Cl)c2nc(Cc3ccc(OCCO)cc3)[nH]c(=O)c12

row,SMILES,ΔTm [°C]
1,Cc1ccc(NC2=CC(=O)c3sc(C)nc3C2=O)cc1,-0.9

# Molecular target: Glycogen synthase kinase-3 beta (Homo sapiens, UniProt P49841)
# Sequence (P49841 whole entry, looked up): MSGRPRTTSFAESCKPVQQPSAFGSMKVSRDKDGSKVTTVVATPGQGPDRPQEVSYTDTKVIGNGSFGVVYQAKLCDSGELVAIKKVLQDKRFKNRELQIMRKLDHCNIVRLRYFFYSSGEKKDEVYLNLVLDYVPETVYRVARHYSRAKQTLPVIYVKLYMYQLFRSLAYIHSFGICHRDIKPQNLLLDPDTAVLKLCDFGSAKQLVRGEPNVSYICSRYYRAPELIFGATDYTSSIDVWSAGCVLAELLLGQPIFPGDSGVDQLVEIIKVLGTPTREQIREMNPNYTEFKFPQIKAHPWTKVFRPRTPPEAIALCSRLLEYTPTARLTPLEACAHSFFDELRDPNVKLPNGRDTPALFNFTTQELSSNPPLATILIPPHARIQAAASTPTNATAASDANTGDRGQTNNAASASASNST
row,ΔTm [°C],SMILES
1,1.1,O=C(Nc1cccc(Nc2cc(Nc3cccc(C(F)(F)F)c3)ncn2)c1)C1CC1
2,0.8,c1ccc(-c2n[nH]c3c2oc2ccccc23)cc1
3,0.2,CC(C)c1nn(-c2c(Cl)cccc2Cl)c2nc(Cc3ccc(OCCO)cc3)[nH]c(=O)c12

row,SMILES,ΔTm [°C]
1,Cc1ccc(NC2=CC(=O)c3sc(C)nc3C2=O)cc1,0.4

# Molecular target: T3, 3-phosphoinositide-dependent protein kinase 1 (Homo sapiens) (UniProt O15530)
# T3 sequence (whole entry): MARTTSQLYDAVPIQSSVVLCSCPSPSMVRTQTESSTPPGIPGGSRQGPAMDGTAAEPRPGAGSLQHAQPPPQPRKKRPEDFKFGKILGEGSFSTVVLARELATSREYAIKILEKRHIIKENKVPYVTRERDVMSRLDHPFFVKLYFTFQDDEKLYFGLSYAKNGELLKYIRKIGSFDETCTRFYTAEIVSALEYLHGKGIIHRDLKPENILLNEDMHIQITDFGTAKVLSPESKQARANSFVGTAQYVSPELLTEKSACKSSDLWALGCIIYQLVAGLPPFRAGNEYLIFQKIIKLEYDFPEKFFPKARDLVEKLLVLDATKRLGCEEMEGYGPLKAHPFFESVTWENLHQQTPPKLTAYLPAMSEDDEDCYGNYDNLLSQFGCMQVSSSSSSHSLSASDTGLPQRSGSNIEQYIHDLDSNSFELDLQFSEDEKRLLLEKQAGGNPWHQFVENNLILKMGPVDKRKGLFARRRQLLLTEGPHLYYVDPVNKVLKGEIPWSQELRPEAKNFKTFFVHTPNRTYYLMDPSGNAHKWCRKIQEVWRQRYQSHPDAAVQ
row,ΔTm [°C],SMILES
1,1.7,O=C(Nc1cccc(Nc2cc(Nc3cccc(C(F)(F)F)c3)ncn2)c1)C1CC1
2,-0.5,c1ccc(-c2n[nH]c3c2oc2ccccc23)cc1
3,0,CC(C)c1nn(-c2c(Cl)cccc2Cl)c2nc(Cc3ccc(OCCO)cc3)[nH]c(=O)c12

row,SMILES,ΔTm [°C]
1,Cc1ccc(NC2=CC(=O)c3sc(C)nc3C2=O)cc1,-3.4

# Molecular target: Calcium/calmodulin-dependent protein kinase type 1D (Homo sapiens) (UniProt Q8IU85)
# Sequence (Q8IU85 whole entry, looked up): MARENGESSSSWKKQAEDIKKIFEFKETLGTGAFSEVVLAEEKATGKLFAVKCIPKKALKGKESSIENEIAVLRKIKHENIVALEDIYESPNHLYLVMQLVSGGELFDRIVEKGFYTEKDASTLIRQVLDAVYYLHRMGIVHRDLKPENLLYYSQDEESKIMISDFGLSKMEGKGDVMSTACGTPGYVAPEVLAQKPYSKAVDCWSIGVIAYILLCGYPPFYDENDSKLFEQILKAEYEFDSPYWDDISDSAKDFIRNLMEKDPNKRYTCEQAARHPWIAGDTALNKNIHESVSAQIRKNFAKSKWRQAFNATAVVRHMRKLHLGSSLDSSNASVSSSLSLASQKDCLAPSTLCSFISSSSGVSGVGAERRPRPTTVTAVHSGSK
row,ΔTm [°C],SMILES
1,2.6,O=C(Nc1cccc(Nc2cc(Nc3cccc(C(F)(F)F)c3)ncn2)c1)C1CC1
2,0.6,c1ccc(-c2n[nH]c3c2oc2ccccc23)cc1
3,0.1,CC(C)c1nn(-c2c(Cl)cccc2Cl)c2nc(Cc3ccc(OCCO)cc3)[nH]c(=O)c12

row,SMILES,ΔTm [°C]
1,Cc1ccc(NC2=CC(=O)c3sc(C)nc3C2=O)cc1,-1.6

# Molecular target: Serine/threonine-protein kinase pim-1 (Homo sapiens) (UniProt P11309)
# Sequence (P11309 whole entry, looked up): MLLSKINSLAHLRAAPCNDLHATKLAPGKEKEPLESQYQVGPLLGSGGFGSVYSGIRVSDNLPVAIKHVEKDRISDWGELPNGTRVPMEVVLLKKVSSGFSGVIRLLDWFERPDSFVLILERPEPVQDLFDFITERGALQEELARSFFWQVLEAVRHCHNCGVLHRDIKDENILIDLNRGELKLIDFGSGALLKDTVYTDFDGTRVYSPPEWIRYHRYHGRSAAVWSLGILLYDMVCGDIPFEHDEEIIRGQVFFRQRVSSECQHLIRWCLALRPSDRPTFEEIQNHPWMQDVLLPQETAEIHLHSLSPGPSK
row,ΔTm [°C],SMILES
1,1,O=C(Nc1cccc(Nc2cc(Nc3cccc(C(F)(F)F)c3)ncn2)c1)C1CC1
2,-0.5,c1ccc(-c2n[nH]c3c2oc2ccccc23)cc1
3,0,CC(C)c1nn(-c2c(Cl)cccc2Cl)c2nc(Cc3ccc(OCCO)cc3)[nH]c(=O)c12

row,SMILES,ΔTm [°C]
1,Cc1ccc(NC2=CC(=O)c3sc(C)nc3C2=O)cc1,-1.3

# Molecular target: Serine/threonine-protein kinase Chk2 (Homo sapiens, UniProt O96017)
# Sequence (O96017 whole entry): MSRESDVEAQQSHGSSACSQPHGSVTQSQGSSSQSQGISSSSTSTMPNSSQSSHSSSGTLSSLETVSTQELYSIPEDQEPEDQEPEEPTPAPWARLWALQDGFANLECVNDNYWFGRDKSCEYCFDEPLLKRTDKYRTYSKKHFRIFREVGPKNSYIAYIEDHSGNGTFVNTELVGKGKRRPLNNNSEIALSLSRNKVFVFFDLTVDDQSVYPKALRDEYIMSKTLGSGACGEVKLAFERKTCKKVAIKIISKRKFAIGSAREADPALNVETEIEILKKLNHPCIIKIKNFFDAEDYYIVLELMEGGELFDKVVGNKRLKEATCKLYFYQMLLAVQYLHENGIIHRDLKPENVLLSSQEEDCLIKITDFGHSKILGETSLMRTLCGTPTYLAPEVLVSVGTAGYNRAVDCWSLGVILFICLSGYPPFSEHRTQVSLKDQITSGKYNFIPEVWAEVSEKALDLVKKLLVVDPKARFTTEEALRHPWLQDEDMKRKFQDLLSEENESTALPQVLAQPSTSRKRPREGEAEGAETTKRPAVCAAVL
row,ΔTm [°C],SMILES
1,2.4,O=C(Nc1cccc(Nc2cc(Nc3cccc(C(F)(F)F)c3)ncn2)c1)C1CC1
2,0.7,c1ccc(-c2n[nH]c3c2oc2ccccc23)cc1
3,3.6,CC(C)c1nn(-c2c(Cl)cccc2Cl)c2nc(Cc3ccc(OCCO)cc3)[nH]c(=O)c12

row,SMILES,ΔTm [°C]
1,Cc1ccc(NC2=CC(=O)c3sc(C)nc3C2=O)cc1,-1.8

# Molecular target: Dual specificity protein kinase CLK1 (Homo sapiens) (UniProt P49759)
row,ΔTm [°C],SMILES
1,1.9,O=C(Nc1cccc(Nc2cc(Nc3cccc(C(F)(F)F)c3)ncn2)c1)C1CC1
2,1.8,c1ccc(-c2n[nH]c3c2oc2ccccc23)cc1
3,3.6,CC(C)c1nn(-c2c(Cl)cccc2Cl)c2nc(Cc3ccc(OCCO)cc3)[nH]c(=O)c12

row,SMILES,ΔTm [°C]
1,Cc1ccc(NC2=CC(=O)c3sc(C)nc3C2=O)cc1,-0.8

# Molecular target: Serine/threonine-protein kinase 26 (Homo sapiens) (UniProt Q9P289)
# Sequence (Q9P289 2-416 limits assumed): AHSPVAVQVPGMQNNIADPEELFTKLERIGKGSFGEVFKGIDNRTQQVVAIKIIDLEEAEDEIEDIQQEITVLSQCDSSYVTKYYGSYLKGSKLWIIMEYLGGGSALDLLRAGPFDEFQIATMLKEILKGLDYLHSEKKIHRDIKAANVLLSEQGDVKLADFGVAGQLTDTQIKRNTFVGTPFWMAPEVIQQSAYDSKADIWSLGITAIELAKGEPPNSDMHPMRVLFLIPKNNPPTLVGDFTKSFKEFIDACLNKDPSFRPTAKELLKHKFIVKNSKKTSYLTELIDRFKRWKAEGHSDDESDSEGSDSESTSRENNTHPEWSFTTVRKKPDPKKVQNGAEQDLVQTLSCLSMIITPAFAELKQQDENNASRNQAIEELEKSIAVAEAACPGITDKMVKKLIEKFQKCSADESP
row,ΔTm [°C],SMILES
1,0.8,O=C(Nc1cccc(Nc2cc(Nc3cccc(C(F)(F)F)c3)ncn2)c1)C1CC1
2,3.4,c1ccc(-c2n[nH]c3c2oc2ccccc23)cc1
3,0.5,CC(C)c1nn(-c2c(Cl)cccc2Cl)c2nc(Cc3ccc(OCCO)cc3)[nH]c(=O)c12

row,SMILES,ΔTm [°C]
1,Cc1ccc(NC2=CC(=O)c3sc(C)nc3C2=O)cc1,-0.5

# Molecular target: Cyclin-dependent kinase 6 (Homo sapiens) (UniProt Q00534)
row,ΔTm [°C],SMILES
1,0.1,O=C(Nc1cccc(Nc2cc(Nc3cccc(C(F)(F)F)c3)ncn2)c1)C1CC1
2,0.6,c1ccc(-c2n[nH]c3c2oc2ccccc23)cc1
3,0.5,CC(C)c1nn(-c2c(Cl)cccc2Cl)c2nc(Cc3ccc(OCCO)cc3)[nH]c(=O)c12

row,SMILES,ΔTm [°C]
1,Cc1ccc(NC2=CC(=O)c3sc(C)nc3C2=O)cc1,-1.7

# Molecular target: Cyclin-dependent kinase-like 1 (Homo sapiens) (UniProt Q00532)
# Sequence (Q00532 whole entry): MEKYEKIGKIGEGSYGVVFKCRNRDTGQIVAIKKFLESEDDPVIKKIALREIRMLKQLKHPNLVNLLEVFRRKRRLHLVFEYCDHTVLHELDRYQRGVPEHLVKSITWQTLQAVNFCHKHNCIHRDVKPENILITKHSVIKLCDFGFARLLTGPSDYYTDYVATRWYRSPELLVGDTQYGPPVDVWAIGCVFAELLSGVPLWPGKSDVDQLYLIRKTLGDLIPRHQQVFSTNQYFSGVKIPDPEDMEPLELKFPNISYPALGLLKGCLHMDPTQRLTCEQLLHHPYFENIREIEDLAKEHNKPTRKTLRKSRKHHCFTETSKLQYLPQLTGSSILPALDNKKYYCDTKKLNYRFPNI
row,ΔTm [°C],SMILES
1,1.5,O=C(Nc1cccc(Nc2cc(Nc3cccc(C(F)(F)F)c3)ncn2)c1)C1CC1
2,0.1,c1ccc(-c2n[nH]c3c2oc2ccccc23)cc1
3,0.2,CC(C)c1nn(-c2c(Cl)cccc2Cl)c2nc(Cc3ccc(OCCO)cc3)[nH]c(=O)c12

row,SMILES,ΔTm [°C]
1,Cc1ccc(NC2=CC(=O)c3sc(C)nc3C2=O)cc1,-1.3
